Experimental data reported in patent US9409952B2, “Peptide-compound cyclization method” (Chugai Seiyaku Kabushiki Kaisha, priority 2011, dated 2016).
Positions of bridges follow the written chain, without caps; N, C: chain ends. Non-standard residues stand in square brackets, D forms with d. Residues, ends and D or L forms follow the SMILES beside them. *: point of attachment. NMeF = CN[C@@H](Cc1ccccc1)C(=O)O; NMeI = CC[C@H](C)[C@H](NC)C(=O)O; NMeL = CN[C@@H](CC(C)C)C(=O)O; NMeV = CN[C@H](C(=O)O)C(C)C; NMeA = CN[C@@H](C)C(=O)O; Piperidide = C1CCN(*)CC1; dNMeA = CN[C@H](C)C(=O)O; Sar = CNCC(=O)O

Experiment: PAMPA (parallel artificial membrane permeability assay)
Type: in vitro ADME
Conditions: PAMPA, pH 6.5
Experimental: 4 μL of a phospholipid-organic solvent solution composed of 10% (w/v) of egg lecithin, 0.5% (w/v) of cholesterol and dodecane (all purchased from Fluka) was added to a Millipore 96-well membrane filter (hydrophobic PVDF (polyvinylidene difluoride), pore size 0.45 microm) (purchased from Millipore Japan) to make an artificial phospholipid membrane.
A DMSO solution containing the compound at a concentration of 10 mM was added in a percentage of 0.5% (v/v) to a 50 mM MOPSO buffer, pH 6.5, containing 5.0% (w/v) of glycocholic acid, and 330 μL of the mixture was added to a 96-well plate made of Teflon (donor plate). The above artificial phospholipid membrane plate was attached onto the donor plate, and 280 μL of a solution obtained by adding DMSO in a percentage of 0.5% (v/v) to a 50 mM MOPSO buffer, pH 6.5, containing 5.0% (w/w) of glycocholic acid was added onto the artificial phospholipid membrane (acceptor plate). These plates were allowed to stand at 37° C. for 18 hours, after which the concentrations of the compound in the solutions in the donor plate and the acceptor plate were measured by LC/MS or LC/UV, and the membrane permeation rate of the compound (Pe) was calculated by the following formulas (1) and (2), where t is the testing time, A is the membrane filter area, VD is the amount of the donor solution, VA is the amount of the acceptor solution, CD,t is the concentration of the compound in the donor solution at the time t, and CA,t is the concentration of the compound in the acceptor solution at the time t.

| Compound | Papp at 18 hours, 50 µM [×10⁻⁶ cm/s] |
| --- | --- |
| CC[C@H](C)[C@H]1C(=O)N[C@@H]([C@@H](C)O)C(=O)N[C@@H](Cc2ccccc2)C(=O)N2CCC[C@H]2C(=O)NCC(=O)N(C)[C@@H](CC(C)C)C(=O)N[C@H](C(=O)N(C)[C@@H](Cc2ccccc2)C(=O)N[C@@H](C)C(=O)N2CCCCC2)CC(=O)N[C@H](C(C)C)C(=O)N[C@@H](Cc2ccccc2)C(=O)N(C)[C@@H](CC(C)C)C(=O)N[C@@H](CC(C)C)C(=O)N1C [DP-278] ([dV]F[NMeL]L[NMeI]TFPG[NMeL]D[NMeF]A-Piperidide; lactam N-11) | 1.5 |
| CC[C@H](C)[C@@H]1NC(=O)[C@H](C)N(C)C(=O)C[C@@H](C(=O)N(C)[C@@H](Cc2ccccc2)C(=O)N[C@@H](C)C(=O)N2CCCCC2)NC(=O)[C@H](Cc2ccccc2)N(C)C(=O)CN(C)C(=O)[C@H]([C@@H](C)O)NC(=O)[C@H](C)N(C)C(=O)[C@H](C(C)C)N(C)C(=O)[C@H](CC(C)C)N(C)C(=O)[C@H](Cc2ccccc2)NC(=O)[C@H](CC(C)C)N(C)C1=O [DP-279] ([NMeA]I[NMeL]F[NMeL][NMeV][NMeA]T[Sar][NMeF]D[NMeF]A-Piperidide; lactam N-11) | 15 |
| CC[C@H](C)[C@@H]1NC(=O)[C@@H](C)N(C)C(=O)C[C@@H](C(=O)N(C)[C@@H](Cc2ccccc2)C(=O)N[C@@H](C)C(=O)N2CCCCC2)NC(=O)[C@H](Cc2ccccc2)NC(=O)[C@H]([C@@H](C)O)NC(=O)[C@@H]2CCCN2C(=O)CNC(=O)[C@H](CC(C)C)N(C)C(=O)[C@H](Cc2ccccc2)N(C)C(=O)[C@H](CC(C)C)N(C)C(=O)[C@H](CC(C)C)NC1=O [DP-283] ([dNMeA]IL[NMeL][NMeF][NMeL]GPTFD[NMeF]A-Piperidide; lactam N-11) | 1.5 |
| CC[C@H](C)[C@@H]1NC(=O)[C@H](Cc2ccccc2)N(C)C(=O)[C@H]([C@@H](C)O)NC(=O)[C@H](C)NC(=O)C[C@@H](C(=O)N(C)[C@@H](Cc2ccccc2)C(=O)N(C)[C@@H](Cc2ccccc2)C(=O)N[C@@H](C)C(=O)N2CCCCC2)NC(=O)[C@H](CC(C)C)N(C)C(=O)[C@H](CC(C)C)N(C)C(=O)[C@H](Cc2ccccc2)N(C)C(=O)[C@H](CC(C)C)N(C)C(=O)[C@H](C)N(C)C1=O [DP-286] (AT[NMeF]I[NMeA][NMeL][NMeF][NMeL][NMeL]D[NMeF][NMeF]A-Piperidide; lactam N-10) | 0.24 |
| CC(C)C[C@H]1C(=O)N(C)[C@@H](C(C)C)C(=O)N[C@@H](Cc2ccccc2)C(=O)N[C@H](C(=O)N(C)[C@@H](Cc2ccccc2)C(=O)N(C)[C@@H](Cc2ccccc2)C(=O)N[C@@H](C)C(=O)N2CCCCC2)CC(=O)N[C@@H](C)C(=O)N[C@@H](C(C)C)C(=O)N(C)[C@@H](CC(C)C)C(=O)N[C@@H]([C@@H](C)O)C(=O)N(C)[C@@H](Cc2ccccc2)C(=O)NCC(=O)N1C [DP-287] (AV[NMeL]T[NMeF]G[NMeL][NMeV]FD[NMeF][NMeF]A-Piperidide; lactam N-10) | 1.4 |

Same assay, conditions: PAMPA; membrane permeation rate (Pe); 50 mM MOPSO buffer pH 6.5 with 5.0% glycocholic acid, 37° C., 18 hours; read-out: iPAMPA Pe

| Compound | Papp at 18 hours, 50 µM [×10⁻⁶ cm/s] |
| --- | --- |
| CC(C)C[C@@H]1NC(=O)[C@H](Cc2ccccc2)N(C)C(=O)[C@H](C)NC(=O)[C@H](C)N(C)C(=O)[C@H]([C@@H](C)O)NC(=O)[C@H](CC(C)C)N(C)C(=O)[C@H](C)N(C)C(=O)C[C@@H](C(=O)N2CCCCC2)NC(=O)[C@H](CC(C)C)N(C)C(=O)[C@H](Cc2ccccc2)N(C)C(=O)[C@H](CC(C)C)N(C)C1=O [DP-156] ([NMeA][NMeL]T[NMeA]A[NMeF]L[NMeL][NMeF][NMeL]D-Piperidide; lactam N-11) | 24 |
| CC(C)C[C@H]1C(=O)N(C)[C@@H](Cc2ccccc2)C(=O)N(C)[C@@H](Cc2ccccc2)C(=O)N[C@@H]([C@@H](C)O)C(=O)N(C)[C@@H](C)C(=O)N(C)[C@@H](CC(C)C)C(=O)N[C@H](C(=O)N2CCCCC2)CC(=O)N(C)[C@H](C)C(=O)N(C)[C@@H](CC(C)C)C(=O)N(C)[C@@H](CC(C)C)C(=O)N[C@@H](C)C(=O)N1C [DP-166] ([dNMeA][NMeL][NMeL]A[NMeL][NMeF][NMeF]T[NMeA][NMeL]D-Piperidide; lactam N-11) | 55 |
| CC[C@H](C)[C@@H]1NC(=O)[C@H](C)NC(=O)C[C@@H](C(=O)N(C)[C@@H](Cc2ccccc2)C(=O)N[C@@H](C)C(=O)N2CCCCC2)NC(=O)[C@H](Cc2ccccc2)N(C)C(=O)[C@H](CC(C)C)N(C)C(=O)[C@H](C)N(C)C(=O)[C@H]([C@@H](C)O)NC(=O)[C@H](Cc2ccccc2)N(C)C(=O)[C@H](CC(C)C)N(C)C(=O)[C@H](C)N(C)C(=O)[C@H](CC(C)C)N(C)C1=O [DP-178] (AI[NMeL][NMeA][NMeL][NMeF]T[NMeA][NMeL][NMeF]D[NMeF]A-Piperidide; lactam N-11) | 1 |
| CC(C)C[C@H]1C(=O)N(C)[C@@H](CC(C)C)C(=O)N(C)[C@@H](Cc2ccccc2)C(=O)N[C@@H]([C@@H](C)O)C(=O)N(C)[C@@H](C)C(=O)N(C)[C@@H](CC(C)C)C(=O)N(C)[C@@H](Cc2ccccc2)C(=O)N[C@H](C(=O)N(C)[C@@H](Cc2ccccc2)C(=O)N[C@@H](C)C(=O)N2CCCCC2)CC(=O)N(C)[C@H](C)C(=O)N(C)[C@@H](CC(C)C)C(=O)N[C@@H](C)C(=O)N1C [DP-184] ([dNMeA][NMeL]A[NMeL][NMeL][NMeF]T[NMeA][NMeL][NMeF]D[NMeF]A-Piperidide; lactam N-11) | 1.3 |
| CC[C@H](C)[C@@H]1NC(=O)[C@H](CC(C)C)N(C)C(=O)[C@H](C(C)C)N(C)C(=O)[C@H](Cc2ccccc2)N(C)C(=O)[C@H](CC(C)C)NC(=O)[C@H](C)N(C)C(=O)[C@H](C)N(C)C(=O)[C@H]([C@@H](C)O)NC(=O)[C@H](Cc2ccccc2)N(C)C(=O)CN(C)C(=O)C[C@@H](C(=O)N(C)[C@@H](Cc2ccccc2)C(=O)N[C@@H](C)C(=O)N2CCCCC2)NC1=O [DP-186] ([Sar][NMeF]T[NMeA][NMeA]L[NMeF][NMeV][NMeL]ID[NMeF]A-Piperidide; lactam N-11) | 37 |
| CC(C)C[C@H]1C(=O)N[C@H](C(=O)N(C)[C@@H](Cc2ccccc2)C(=O)N[C@@H](C)C(=O)N2CCCCC2)CC(=O)N(C)[C@@H](C)C(=O)N[C@@H]([C@@H](C)O)C(=O)N(C)[C@@H](Cc2ccccc2)C(=O)N(C)[C@@H](CC(C)C)C(=O)N(C)[C@@H](CC(C)C)C(=O)N[C@@H](C)C(=O)N(C)[C@@H](Cc2ccccc2)C(=O)N(C)[C@@H](CC(C)C)C(=O)N1C [DP-192] ([NMeA]T[NMeF][NMeL][NMeL]A[NMeF][NMeL][NMeL]D[NMeF]A-Piperidide; lactam N-10) | 0.64 |
| CC(C)C[C@H]1C(=O)N[C@H](C(=O)N(C)[C@@H](Cc2ccccc2)C(=O)N(C)[C@@H](Cc2ccccc2)C(=O)N[C@@H](C)C(=O)N2CCCCC2)CC(=O)N(C)[C@@H](C)C(=O)N(C)[C@@H](C)C(=O)N(C)[C@@H](Cc2ccccc2)C(=O)N[C@@H]([C@@H](C)O)C(=O)N(C)[C@@H](C)C(=O)N(C)[C@@H](CC(C)C)C(=O)N(C)[C@@H](CC(C)C)C(=O)N[C@@H](C(C)C)C(=O)N1C [DP-206] ([NMeA][NMeA][NMeF]T[NMeA][NMeL][NMeL]V[NMeL]D[NMeF][NMeF]A-Piperidide; lactam N-10) | 9 |
| CC(C)C[C@H]1C(=O)N[C@H](C(=O)N(C)[C@@H](Cc2ccccc2)C(=O)N(C)[C@@H](Cc2ccccc2)C(=O)N[C@@H](C)C(=O)N2CCCCC2)CC(=O)N[C@H](C(C)C)C(=O)N(C)[C@@H](Cc2ccccc2)C(=O)N(C)[C@@H](CC(C)C)C(=O)N[C@@H]([C@@H](C)O)C(=O)N(C)[C@@H](C)C(=O)N(C)[C@@H](CC(C)C)C(=O)N[C@@H](C(C)C)C(=O)N1C [DP-210] ([dV][NMeF][NMeL]T[NMeA][NMeL]V[NMeL]D[NMeF][NMeF]A-Piperidide; lactam N-9) | 1.8 |
